Consider 13 compounds from patent US12649750B2, “Macrocyclic compounds, compositions, and methods of using thereof” (Sionna Therapeutics Inc., priority 2022, dated 2026).

The target in one assay is T1, CFTR (Homo sapiens, UniProt P13569, DEL508-508).
T1 construct: Primary human bronchial epithelial cells from a ΔF508 homozygous CF donor; host or cells: primary human bronchial epithelial cells (CF-HBE), ΔF508 homozygous donor
Kind of assay: TECC24 AUC fold over DMSO @10 μM, CFTR-mediated transepithelial chloride transport in CF-HBE cells. Format: cell-based. Particulars: test agent AUC divided by DMSO vehicle AUC, primary CF-HBE cells, ΔF508 homozygous donor, 48 hours incubation. The method in brief:
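ΔF508-homozygous primary bronchial epithelial cells incubated 48 h at 36.5° C with compound (10 μM) in IL-13-containing medium, then TECC24 current-clamp recording in pH 7.4 Hepes saline with benzamil 10 μM, forskolin 10 μM, then CFTR inhibitor-172 20 μM. Equivalent Cl− current AUC between forskolin and inhibitor, expressed as fold over DMSO.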

In a further assay the target is T2, NBD1 (Homo sapiens, UniProt P13569).
T2 construct: Purified recombinant NBD1 was produced using previously described methods; made in house
The assay is described as follows: Aggregation analysis using differential static light scattering (DSLS), thermal stability of NBD1 (ΔTagg). The assay is classed as binding. To be noted: ΔTagg versus DMSO control, NBD1 0.2 mg/ml. The method in brief: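 Read-out is ΔTagg: the aggregation temperature, taken at the inflection of the light-scattering curve, less the average of DMSO control wells. Recombinant NBD1 (0.2 mg/ml, pH7.6 buffer containing 2 mM ATP) with test compound was heated at 1° C. per minute up to 70° C.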

T2 sequence (P13569 423-646 limits assumed): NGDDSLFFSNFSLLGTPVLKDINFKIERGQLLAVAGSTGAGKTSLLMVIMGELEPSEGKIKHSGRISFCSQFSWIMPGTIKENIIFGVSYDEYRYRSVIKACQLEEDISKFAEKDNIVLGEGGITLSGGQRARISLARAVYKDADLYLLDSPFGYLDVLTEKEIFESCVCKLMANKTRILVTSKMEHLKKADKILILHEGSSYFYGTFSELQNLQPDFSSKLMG
T1 sequence (P13569 with tags, fused parts or gaps DEL508-508): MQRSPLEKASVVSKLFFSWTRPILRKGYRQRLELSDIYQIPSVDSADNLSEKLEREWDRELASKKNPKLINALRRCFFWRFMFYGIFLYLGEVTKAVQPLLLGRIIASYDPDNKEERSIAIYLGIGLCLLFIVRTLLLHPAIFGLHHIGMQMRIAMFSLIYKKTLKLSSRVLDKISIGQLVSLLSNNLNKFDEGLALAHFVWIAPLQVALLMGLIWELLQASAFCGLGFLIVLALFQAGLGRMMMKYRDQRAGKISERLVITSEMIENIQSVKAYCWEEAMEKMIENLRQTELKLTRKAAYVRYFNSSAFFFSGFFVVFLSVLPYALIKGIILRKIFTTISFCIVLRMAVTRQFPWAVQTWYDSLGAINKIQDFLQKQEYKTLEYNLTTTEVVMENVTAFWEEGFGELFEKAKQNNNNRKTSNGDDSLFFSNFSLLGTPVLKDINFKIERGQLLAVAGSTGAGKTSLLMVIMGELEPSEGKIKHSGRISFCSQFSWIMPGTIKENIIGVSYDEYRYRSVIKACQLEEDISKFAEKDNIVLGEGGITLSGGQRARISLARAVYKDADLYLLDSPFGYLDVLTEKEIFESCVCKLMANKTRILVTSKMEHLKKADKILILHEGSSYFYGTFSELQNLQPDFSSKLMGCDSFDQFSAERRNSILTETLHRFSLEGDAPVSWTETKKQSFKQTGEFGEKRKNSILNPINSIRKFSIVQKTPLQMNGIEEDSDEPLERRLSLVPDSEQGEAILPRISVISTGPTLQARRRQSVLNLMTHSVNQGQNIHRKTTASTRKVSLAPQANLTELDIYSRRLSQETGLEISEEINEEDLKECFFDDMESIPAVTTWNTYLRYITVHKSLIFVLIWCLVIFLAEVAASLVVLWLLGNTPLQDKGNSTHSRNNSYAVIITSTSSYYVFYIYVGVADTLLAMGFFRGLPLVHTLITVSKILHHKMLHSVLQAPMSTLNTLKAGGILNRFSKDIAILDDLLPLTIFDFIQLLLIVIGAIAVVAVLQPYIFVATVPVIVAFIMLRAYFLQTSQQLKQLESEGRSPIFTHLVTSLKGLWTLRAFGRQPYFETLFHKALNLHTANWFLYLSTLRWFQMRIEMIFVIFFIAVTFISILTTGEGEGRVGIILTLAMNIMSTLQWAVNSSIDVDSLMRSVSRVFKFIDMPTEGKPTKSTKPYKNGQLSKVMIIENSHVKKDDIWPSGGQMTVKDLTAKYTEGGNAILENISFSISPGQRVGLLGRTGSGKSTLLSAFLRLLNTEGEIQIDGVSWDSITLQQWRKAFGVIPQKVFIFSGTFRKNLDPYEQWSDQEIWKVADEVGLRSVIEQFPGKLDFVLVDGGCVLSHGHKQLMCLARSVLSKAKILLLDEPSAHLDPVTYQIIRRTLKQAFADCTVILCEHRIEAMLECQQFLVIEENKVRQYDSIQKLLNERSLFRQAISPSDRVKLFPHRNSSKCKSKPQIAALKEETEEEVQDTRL

Turning to `C[C@H](Cc1cccc(C2(C)CCCC(C)(C)CS(=O)(=O)CCc3c(c(F)cc4[nH]ccc34)Oc3ccc(F)c(c3)-c3nc2nn3C)c1)C(=O)O` (single isomer, unassigned) [Compound 6B], the “TECC (AUC, 10 μM)” value on CFTR is “C (a value between 20 and 80 is marked “C”)”. The “DSLS 3D (100 μM ΔT)” value on NBD1 was “A (an ΔTagg value less than or equal to 5 °C is marked “A”)”.

`C[C@@H](Cc1cccc([C@@]2(C)CCCC(C)(C)CS(=O)(=O)CCc3c(c(F)cc4[nH]ccc34)Oc3ccc(F)c(c3)-c3nc2nn3C)c1)C(=O)O` (single isomer, unassigned) [Compound 7]: the “TECC (AUC, 10 μM)” value on CFTR was “B (a value between 12-20 is marked “B”)”. On NBD1, the “DSLS 3D (100 μM ΔT)” value was “C (a value greater than 10 °C and less than or equal to 25 °C is marked “C”)”.

Take `[2H]C([2H])([2H])C1(c2cccc(CC(C)C(=O)O)c2)COCC(C)(C)CS(=O)(=O)CCc2c(c(F)cc3[nH]ccc23)Oc2ccc(F)c(c2)-c2nc1nn2C` (single isomer, unassigned) [Compound 8A, 3-[3-[22,28-difluoro-3,10,10-trimethyl-12,12-dioxo-6-(trideuteriomethyl)-8,24-dioxa-12lambda6-thia-3,4,19,30-tetrazapentacyclo[23.3.1.12,5.015,23.016,20]triaconta-1(29),2(30),4,15,17,20,22,25,27-nonaen-6-yl]phenyl]-2-methyl-propanoic acid]: the “TECC (AUC, 10 μM)” value at CFTR is “B (a value between 12-20 is marked “B”)”. Besides, at NBD1, the “DSLS 3D (100 μM ΔT)” value was “C (a value greater than 10 °C and less than or equal to 25 °C is marked “C”)”.

With `[2H]C([2H])([2H])C1(c2cccc(CC(C)C(=O)O)c2)COCC(C)(C)CS(=O)(=O)CCc2c(c(F)cc3[nH]ccc23)Oc2ccc(F)c(c2)-c2nc1nn2C` (single isomer, unassigned) [Compound 8B, 3-[3-[22,28-difluoro-3,10,10-trimethyl-12,12-dioxo-6-(trideuteriomethyl)-8,24-dioxa-12lambda6-thia-3,4,19,30-tetrazapentacyclo[23.3.1.12,5.015,23.016,20]triaconta-1(29),2(30),4,15,17,20,22,25,27-nonaen-6-yl]phenyl]-2-methyl-propanoic Acid], the “TECC (AUC, 10 μM)” value on CFTR is “A (a TECC value less than 12 is marked “A”)”. In addition, the “DSLS 3D (100 μM ΔT)” value at NBD1 was “A (an ΔTagg value less than or equal to 5 °C is marked “A”)”.

On to `[2H]C([2H])([2H])C1(c2cccc(CC(C)C(=O)O)c2)CCCC(C([2H])([2H])[2H])(C([2H])([2H])[2H])CS(=O)(=O)CCc2c(c(F)cc3[nH]ccc23)Oc2ccc(F)c(c2)-c2nc1nn2C` (single isomer, unassigned) [Compound 9A, 3-[3-[22,28-difluoro-3-methyl-12,12-dioxo-6,10,10-tris(trideuteriomethyl)-24-oxa-12lambda6-thia-3,4,19,30-tetrazapentacyclo[23.3.1.12,5.015,23.016,20]triaconta-1(29),2(30),4,15,17,20,22,25,27-nonaen-6-yl]phenyl]-2-methyl-propanoic Acid], for which the “TECC (AUC, 10 μM)” value on CFTR was “A (a TECC value less than 12 is marked “A”)”. Besides, the “DSLS 3D (100 μM ΔT)” value on NBD1 was “C (a value greater than 10 °C and less than or equal to 25 °C is marked “C”)”.

`[2H]C([2H])([2H])C1(c2cccc(CC(C)C(=O)O)c2)CCCC(C([2H])([2H])[2H])(C([2H])([2H])[2H])CS(=O)(=O)CCc2c(c(F)cc3[nH]ccc23)Oc2ccc(F)c(c2)-c2nc1nn2C` (single isomer, unassigned) [Compound 9B, 3-[3-[22,28-difluoro-3-methyl-12,12-dioxo-6,10,10-tris(trideuteriomethyl)-24-oxa-12lambda6-thia-3,4,19,30-tetrazapentacyclo[23.3.1.12,5.015,23.016,20]triaconta-1(29),2(30),4,15,17,20,22,25,27-nonaen-6-yl]phenyl]-2-methyl-propanoic Acid]: the “TECC (AUC, 10 μM)” value at CFTR was “A (a TECC value less than 12 is marked “A”)”. Moreover, on NBD1, the “DSLS 3D (100 μM ΔT)” value is “A (an ΔTagg value less than or equal to 5 °C is marked “A”)”.

On to `[2H]C([2H])([2H])C1(c2cccc(CC(C)C(=O)O)c2)CCCC(C)(C)CS(=O)(=O)CCc2c(c(F)cc3[nH]ccc23)Oc2ccc(F)c(c2)-c2nc1nn2C` (single isomer, unassigned) [Compound 10A, 3-[3-[22,28-difluoro-3,10,10-trimethyl-12,12-dioxo-6-(trideuteriomethyl)-24-oxa-12lambda6-thia-3,4,19,30-tetrazapentacyclo[23.3.1.12,5.015,23.016,20]triaconta-1(29),2(30),4,15,17,20,22,25,27-nonaen-6-yl]phenyl]-2-methyl-propanoic Acid], for which the “TECC (AUC, 10 μM)” value at CFTR was “A (a TECC value less than 12 is marked “A”)”. Further, the “DSLS 3D (100 μM ΔT)” value at NBD1 was “C (a value greater than 10 °C and less than or equal to 25 °C is marked “C”)”.

With `[2H]C([2H])([2H])C1(c2cccc(CC(C)C(=O)O)c2)CCCC(C)(C)CS(=O)(=O)CCc2c(c(F)cc3[nH]ccc23)Oc2ccc(F)c(c2)-c2nc1nn2C` (single isomer, unassigned) [Compound 10B, 3-[3-[22,28-difluoro-3,10,10-trimethyl-12,12-dioxo-6-(trideuteriomethyl)-24-oxa-12lambda6-thia-3,4,19,30-tetrazapentacyclo[23.3.1.12,5.015,23.016,20]triaconta-1(29),2(30),4,15,17,20,22,25,27-nonaen-6-yl]phenyl]-2-methyl-propanoic Acid], the “TECC (AUC, 10 μM)” value on CFTR was “A (a TECC value less than 12 is marked “A”)”. Moreover, the “DSLS 3D (100 μM ΔT)” value on NBD1 is “B (a value above 5 °C and less than or equal to 10 °C is marked “B”)”.

On to `CC(Cc1cccc(C2(C)CCC(=O)C(C)(C)CS(=O)(=O)CCc3c(c(F)cc4[nH]ccc34)Oc3ccc(F)c(c3)-c3nc2nn3C)c1)C(=O)O` (single isomer, unassigned) [Compound 11A, 3-[3-[22,28-difluoro-3,6,10,10-tetramethyl-9,12,12-trioxo-24-oxa-12lambda6-thia-3,4,19,30-tetrazapentacyclo[23.3.1.12,5.015,23.016,20]triaconta-1(29),2(30),4,15,17,20,22,25,27-nonaen-6-yl]phenyl]-2-methyl-propanoic Acid], for which the “TECC (AUC, 10 μM)” value on CFTR is “C (a value between 20 and 80 is marked “C”)”. At NBD1, the “DSLS 3D (100 μM ΔT)” value is “C (a value greater than 10 °C and less than or equal to 25 °C is marked “C”)”.

For the compound `CC(Cc1cccc(C2(C)CCC(=O)C(C)(C)CS(=O)(=O)CCc3c(c(F)cc4[nH]ccc34)Oc3ccc(F)c(c3)-c3nc2nn3C)c1)C(=O)O` (single isomer, unassigned) [Compound 11B, 3-[3-[22,28-difluoro-3,6,10,10-tetramethyl-9,12,12-trioxo-24-oxa-12lambda6-thia-3,4,19,30-tetrazapentacyclo[23.3.1.12,5.015,23.016,20]triaconta-1(29),2(30),4,15,17,20,22,25,27-nonaen-6-yl]phenyl]-2-methyl-propanoic Acid], the “TECC (AUC, 10 μM)” value at CFTR is recorded as “A (a TECC value less than 12 is marked “A”)”. Besides, the “DSLS 3D (100 μM ΔT)” value on NBD1 was “A (an ΔTagg value less than or equal to 5 °C is marked “A”)”.

For the compound `Cn1nc2nc1-c1cc(ccc1F)Oc1c(F)cc3[nH]ccc3c1CCS(=O)(=O)CC1(CCCC2(C)c2cccc(CCC(=O)O)c2)CC1` (single isomer, unassigned) [Compound 12A, 3-[3-(22,28-difluoro-3,6-dimethyl-12,12-dioxo-spiro[24-oxa-12lambda6-thia-3,4,19,30-tetrazapentacyclo[23.3.1.12,5.015,23.016,20]triaconta-1(29),2(30),4,15,17,20,22,25,27-nonaene-10,1′-cyclopropane]-6-yl)phenyl]propanoic Acid], the “TECC (AUC, 10 μM)” value at CFTR was “B (a value between 12-20 is marked “B”)”. The “DSLS 3D (100 μM ΔT)” value on NBD1 is “C (a value greater than 10 °C and less than or equal to 25 °C is marked “C”)”.

`Cn1nc2nc1-c1cc(ccc1F)Oc1c(F)cc3[nH]ccc3c1CCS(=O)(=O)CC1(CCCC2(C)c2cccc(CCC(=O)O)c2)CC1` (single isomer, unassigned) [Compound 12B, 3-[3-(22,28-difluoro-3,6-dimethyl-12,12-dioxo-spiro[24-oxa-12lambda6-thia-3,4,19,30-tetrazapentacyclo[23.3.1.12,5.015,23.016,20]triaconta-1(29),2(30),4,15,17,20,22,25,27-nonaene-10,1′-cyclopropane]-6-yl)phenyl]propanoic acid]: the “TECC (AUC, 10 μM)” value at CFTR is “C (a value between 20 and 80 is marked “C”)”. Besides, the “DSLS 3D (100 μM ΔT)” value on NBD1 was “A (an ΔTagg value less than or equal to 5 °C is marked “A”)”.

In the case of `CC(Cc1cccc(C2(C)CCCC3(CC3)CS(=O)(=O)CCc3c(c(F)cc4[nH]ccc34)Oc3ccc(F)c(c3)-c3nc2nn3C)c1)C(=O)O` (single isomer, unassigned) [Compound 13A, 3-[3-(22,28-difluoro-3,6-dimethyl-12,12-dioxo-spiro[24-oxa-12lambda6-thia-3,4,19,30-tetrazapentacyclo[23.3.1.12,5.015,23.016,20]triaconta-1(29),2(30),4,15,17,20,22,25,27-nonaene-10,1′-cyclopropane]-6-yl)phenyl]-2-methyl-propanic Acid], the “TECC (AUC, 10 μM)” value at CFTR was “B (a value between 12-20 is marked “B”)”. In addition, at NBD1, the “DSLS 3D (100 μM ΔT)” value was “C (a value greater than 10 °C and less than or equal to 25 °C is marked “C”)”.
